Laboratory results as given in PMC12153356, “An antisense oligomer conjugate with unpredicted bactericidal activity against Fusobacterium nucleatum” (mBio, 2025).
Square brackets hold non-standard residues; d marks the D form. Peptide text beside a SMILES is read from it. Ahx = NCCCCCC(=O)O; βAla = NCCC(=O)O

Columns and labels:
[1] = test system: F. nucleatum subsp. nucleatum ATCC 23726 (FNN23); assay: Determination of bactericidal effect by CFU spot assay; assay type: cell-based, Fusobacterium nucleatum subsp. nucleatum ATCC 23726; settings: 10 µM, 1 × 10^5 CFU/mL in MHB, spotting on BHI agar plates, up to 96 h, three replicates
Procedure: To investigate the bactericidal effects of PNAs an o.n. culture of FNN23 grown in ColB was diluted 1:50 in fresh ColB and grown to OD600 0.5. This culture was then diluted 1:2,500 to 1 × 10^5 CFU/mL in MHB, and 190 µL of the culture was dispensed into a transparent 96-well plate (Nunc, Thermo Fischer Scientific) together with 10 µL of respective 20× PNA stock or water and incubated at 37°C with 237 cpm shaking every 20 min. At the respective time points, 100 µL was taken out of the well, a 1:10 serial dilution series was prepared with 900 µL anoxic 1× PBS, and 5 µL of each dilution was spotted on BHI plates for CFU determination. Plates were incubated for 3 days at 37°C before taking out the plates of the anaerobic chamber for CFU counting.

[2] = test system: HeLa cells; settings: cited from earlier work
[3] = test system: F. nucleatum subsp. nucleatum ATCC 23726 (FNN23); assay: MIC determination and growth inhibition assay (broth microdilution, OD600 over time); assay type: cell-based, Fusobacterium nucleatum subsp. nucleatum ATCC 23726; settings: MHB; for Growth inhibition of FNN23: 10 µM compound, 1 × 10^5 CFU/mL, growth inhibition = no visible growth (OD600 <0.01) after 120 h
Procedure: To test CPP-PNA conjugates for growth inhibition, we diluted mid-exponential phase cultures of FNN23 to 1 × 10^5 colony forming units (CFUs) per milliliter in Mueller-Hinton Broth (MHB) and incubated the diluted bacteria with 10 µM of either (KFF)3K- or (RXR)4XB- conjugated PNAs targeting acpP, ftsZ or gyrA. Growth was monitored over time by OD600 measurements, with growth inhibition defined as no visible growth (OD600 <0.01) after 120 h. […] Based on these findings, we conclude that CPP-PNAs targeting fusobacterial mRNAs are not effective in antisense inhibition.
(§1) The following fusobacterial strains were used in this study: Fusobacterium nucleatum subsp. nucleatum ATCC 23726 (FNN23) acquired from the American Type Culture Collection (ATCC), F. nucleatum subsp. nucleatum ATCC 25586 (FNN25), F. nucleatum subsp. vincentii ATCC 49256 (FNV), and F. nucleatum subsp. polymorphum ATCC 10953 (FNP) acquired from the German Collection of Microorganisms and Cell Culture (DSMZ), F. nucleatum subsp. animalis 7_1 (FNA) and F. periodonticum 2_1_31 (FPE) both received as a kind gift from E. Allen-Vercoe (University of Guelph, Canada). All strains were routinely grown at 37°C in 80:10:10 (N2:H2:CO2) anaerobic conditions on 2% agar supplemented BHI plates (BHI, 1% [wt:vol] dried yeast extract, 1% [vol:vol] 50% sterile-filtered glucose solution, 5 µg/mL of hemin; 1% [vol:vol] fetal bovine serum) from frozen 20% glycerol stocks kept at −80°C. For liquid growth, the strains were cultured in Columbia broth (ColB; BD Difco). Precultures were prepared 24 h before inoculating the working culture at a 1:50 dilution in fresh ColB until OD600 0.5 was reached. Cultures were then diluted in non-cation adjusted Mueller-Hinton Broth (MHB, BD Difco) to the desired CFU/mL number. P. gingivalis (DSM 20709) was purchased from DSMZ and grown at 37°C in anaerobic conditions as mentioned above on 2% agar supplemented BHI+ plates (BHI, 1% [wt:vol] dried yeast extract, 1% [vol:vol] 50% sterile filtered glucose solution, 5 µg/ml of hemin; 10% [vol:vol] fetal bovine serum; and 1 µg/mL vitamin K3) for 4 days. For liquid growth, P. gingivalis was cultured in BHI+ medium (BHI, BD Difco supplemented with 1% [vol:vol] 50% sterile-filtered glucose solution, 5 µg/mL of hemin; 1% [vol:vol] fetal bovine serum, and 1 µg/mL vitamin K3). Precultures were prepared 24 h before inoculating the working culture at a 1:20 dilution in BHI+ until OD600 of 0.5 was reached. All plates, media, buffers, and reagents were brought into the anaerobic chamber the day before usage to ensure full oxygen depletion.
To determine the MIC value, broth microdilutions were performed according to the standard protocol with some modifications ([119]). An overnight bacterial culture was diluted in a fresh ColB medium and grown to OD600 0.5 (mid-exponential phase). […] To determine the growth inhibition of P. gingivalis, an o.n. culture grown in BHI+ was diluted 1:1,500 in MHB to obtain 1 × 10^5 CFU/mL. E. coli K12, E. coli Nissle 1917, and S. enterica o.n. cultures grown in MHB were diluted 1:1,800 in fresh MHB to obtain 1 × 10^5 CFU/mL. In total, 190 µL of diluted bacterial cultures were pipetted into a transparent 96-well plate (Nunc, Thermo Fischer Scientific) together with 10 µL of respective 20× CPP or CPP-PNA stock or water as control. Bacterial growth was monitored by measuring OD600 every 20 min with constant shaking in a plate reader (Biotek) under the normal atmospheric environment or positioned in the anaerobic chamber with double orbital shaking every 20 min prior to each measurement with 237 cpm at 37°C for 120 h.

[4] = test system: F. nucleatum subsp. nucleatum ATCC 25586 (FNN25); assay: Growth inhibition assay; assay type: cell-based, Fusobacterium nucleatum subsp. nucleatum ATCC 25586; settings: 10 µM, MHB, 1 × 10^5 CFU/mL input, three replicates; listed as sequence variant 1
Description: as §1, with “For liquid growth, P. gingivalis was cultured in BHI+ medium (BHI, BD Difco supplemented with 1% [vol:vol] 50% sterile-filtered glucose solution, 5 µg/mL of hemin; 1% [vol:vol] fetal bovine serum, and 1 µg/mL vitamin K3). Precultures were prepared 24 h before inoculating the working culture at a 1:20 dilution in BHI+ until OD600 of 0.5 was reached. All plates, media, buffers, and reagents were brought into the anaerobic chamber the day before usage to ensure full oxygen depletion.” left out
(§2) To determine the MIC value, broth microdilutions were performed according to the standard protocol with some modifications ([119]). […] Bacterial growth was monitored by measuring OD600 every 20 min with constant shaking in a plate reader (Biotek) under the normal atmospheric environment or positioned in the anaerobic chamber with double orbital shaking every 20 min prior to each measurement with 237 cpm at 37°C for 120 h.

[5] = test system: F. nucleatum subsp. animalis 7_1 (FNA); assay: Growth inhibition assay; assay type: cell-based, Fusobacterium nucleatum subsp. animalis 7_1; settings: 10 µM, MHB, 1 × 10^5 CFU/mL input, three replicates; listed as sequence variant 1
Description: as §1, with “For liquid growth, P. gingivalis was cultured in BHI+ medium (BHI, BD Difco supplemented with 1% [vol:vol] 50% sterile-filtered glucose solution, 5 µg/mL of hemin; 1% [vol:vol] fetal bovine serum, and 1 µg/mL vitamin K3). Precultures were prepared 24 h before inoculating the working culture at a 1:20 dilution in BHI+ until OD600 of 0.5 was reached. All plates, media, buffers, and reagents were brought into the anaerobic chamber the day before usage to ensure full oxygen depletion.” left out
as §2

[6] = test system: F. nucleatum subsp. polymorphum ATCC 10953 (FNP); assay: Growth inhibition assay; assay type: cell-based, Fusobacterium nucleatum subsp. polymorphum ATCC 10953; settings: 10 µM, MHB, 1 × 10^5 CFU/mL input, three replicates; listed as sequence variant 1
Description: as §1, with “For liquid growth, P. gingivalis was cultured in BHI+ medium (BHI, BD Difco supplemented with 1% [vol:vol] 50% sterile-filtered glucose solution, 5 µg/mL of hemin; 1% [vol:vol] fetal bovine serum, and 1 µg/mL vitamin K3). Precultures were prepared 24 h before inoculating the working culture at a 1:20 dilution in BHI+ until OD600 of 0.5 was reached. All plates, media, buffers, and reagents were brought into the anaerobic chamber the day before usage to ensure full oxygen depletion.” left out
as §2

[7] = test system: F. periodonticum 2_1_31 (FPE); assay: Growth inhibition assay; assay type: cell-based, Fusobacterium periodonticum 2_1_31; settings: 10 µM, MHB, 1 × 10^5 CFU/mL input, three replicates; listed as sequence variant 1
Description: as §1, with “For liquid growth, P. gingivalis was cultured in BHI+ medium (BHI, BD Difco supplemented with 1% [vol:vol] 50% sterile-filtered glucose solution, 5 µg/mL of hemin; 1% [vol:vol] fetal bovine serum, and 1 µg/mL vitamin K3). Precultures were prepared 24 h before inoculating the working culture at a 1:20 dilution in BHI+ until OD600 of 0.5 was reached. All plates, media, buffers, and reagents were brought into the anaerobic chamber the day before usage to ensure full oxygen depletion.” left out
as §2

Compound: N=C(N)NCCC[C@H](NC(=O)CCCCCNC(=O)[C@H](CCCNC(=N)N)NC(=O)[C@H](CCCNC(=N)N)NC(=O)CCCCCNC(=O)[C@H](CCCNC(=N)N)NC(=O)[C@H](CCCNC(=N)N)NC(=O)CCCCCNC(=O)[C@H](CCCNC(=N)N)NC(=O)[C@H](CCCNC(=N)N)NC(=O)CCCCCNC(=O)[C@@H](N)CCCNC(=N)N)C(=O)NCCCCCC(=O)NCCC(=O)O [(RXR)4XB, reference compound] (H-R[Ahx]RR[Ahx]RR[Ahx]RR[Ahx]R[Ahx][βAla]-OH; N-terminus and C-terminus assumed)
- Bactericidal effect (viable cells, CFU) on FNN23 [1]: no bactericidal effect

Compound: CC[C@H](C)[C@H](NC(=O)[C@H](CCCNC(=N)N)NC(=O)[C@H](CCCNC(=N)N)NC(=O)[C@H](CC(C)C)NC(=O)[C@H](Cc1c[nH]c2ccccc12)NC(=O)[C@H](C)NC(=O)[C@H](CCCCN)NC(=O)[C@@H](NC(=O)[C@H](CCCNC(=N)N)NC(=O)[C@H](CCCNC(=N)N)NC(=O)[C@H](CC(C)C)NC(=O)[C@@H](N)Cc1c[nH]c2ccccc12)[C@@H](C)CC)C(=O)N[C@@H](CCCCN)C(=O)N[C@@H](C)C(=O)N[C@@H](CC(C)C)C(=O)N[C@@H](CC(N)=O)C(=O)N[C@@H](CCCNC(=N)N)C(=O)N[C@@H](CCC(N)=O)C(=O)N[C@@H](CC(C)C)C(=O)NCC(=O)N[C@H](C(=O)N[C@@H](C)C(=O)N[C@@H](C)C(=O)O)C(C)C [Seq471]
- Cytotoxicity in HeLa cells [2]: without notable cytotoxicity

Compound: GACATAATTGT [PNA79, FUS79 without the (RXR)4XB module, PNA …]
- Growth inhibition of FNN23 [3]: only the original FUS79 as well as sequence variant 1 conjugated to full-length (RXR)4XB inhibited the growth

Compound: KFFKFFKFFK (GACATAATTGT; all phosphorodiamidate morpholino (PMO); (KFF)3K peptide conjugated via azide-cyclooctyne click, attachment end not given here) [(KFF)3K-PMO79, (KFF)3K conjugated to 11mer PMO …]
- Growth inhibition of FNN23 [3]: did not inhibit the growth

Compound: KFFKFFKFFK [(KFF)3K-gyrA_11mer_2, (KFF)3K conjugated to 11mer PNA … targeting gyrA]
- Growth delay of FNN23 ([3]; 10 µM (KFF)3K-PNA, 1 × 10^5 CFU/mL (Fig. 2C)): ~ 40 h
- Growth retardation of FNN23 at higher concentrations ([3]; concentrations higher than 10 µM, 1 x 10^5 CFU per ml (Fig. S1C)): did not lead to further growth retardation

Compound: Polymyxin B [reference compound]
- Bactericidal effect (viable cells, CFU) on FNN23 [1]: fully diminished CFUs after 96 h

Compound: RXRRXRRXRRXRXB [(RXR)4XB-ftsZ, (RXR)4XB conjugated to 10mer PNA … targeting ftsZ]
- Bactericidal effect (viable cells, CFU) on FNN23 ([1]; listed as (RXR)4XB-PNA targeting ftsZ): could not observe a CFU reduction

Compound: RXRRXRRXRRXRXB [(RXR)4XB-non-targeting-PMO, (RXR)4XB conjugated to non-targeting 11mer PMO …]
- Growth inhibition of FNN23 ([3]; listed as (RXR)4XB-conjugated non-targeting PMO control): did not inhibit the growth

Compound: RXRRXRRXRRXRXB [(RXR)4XB-trpB, (RXR)4XB conjugated to 11mer PNA … complementary to trpB TIR]
- Growth inhibition of FNN23 [3]: did not result in growth impairment

Compound: RXRRXRRXRRXRXB [FUS79 variant 1]
- Growth inhibition of FNN23 ([3]; listed as sequence variant 1): inhibited the growth
- Growth inhibition of FNN25 [4]: effective in strains susceptible to FUS79
- Growth inhibition of FNA [5]: effective in strains susceptible to FUS79
- Growth inhibition of FNP [6]: effective in strains susceptible to FUS79
- Growth inhibition of FPE [7]: effective in strains susceptible to FUS79

Compound: RXRRXRRXRXB [(RXR)3XB-PNA79, PNA … with shortened CPP module RXRRXRRXRXB]
- Growth inhibition of FNN23 [3]: only the original FUS79 as well as sequence variant 1 conjugated to full-length (RXR)4XB inhibited the growth
